Results from ChEMBL document CHEMBL1138682, “Fluorescent pirenzepine derivatives as potential bitopic ligands of the human M1 muscarinic receptor” (J Med Chem, 2004).
pKd, pKi: −log10 of the molar value.

Tests used:
[1] = target: T1, Muscarinic acetylcholine receptor M1 (Homo sapiens, UniProt P11229); experiment: Inhibition of [3H]QNB binding to human muscarinic receptor M1
T1 sequence (P11229 whole entry): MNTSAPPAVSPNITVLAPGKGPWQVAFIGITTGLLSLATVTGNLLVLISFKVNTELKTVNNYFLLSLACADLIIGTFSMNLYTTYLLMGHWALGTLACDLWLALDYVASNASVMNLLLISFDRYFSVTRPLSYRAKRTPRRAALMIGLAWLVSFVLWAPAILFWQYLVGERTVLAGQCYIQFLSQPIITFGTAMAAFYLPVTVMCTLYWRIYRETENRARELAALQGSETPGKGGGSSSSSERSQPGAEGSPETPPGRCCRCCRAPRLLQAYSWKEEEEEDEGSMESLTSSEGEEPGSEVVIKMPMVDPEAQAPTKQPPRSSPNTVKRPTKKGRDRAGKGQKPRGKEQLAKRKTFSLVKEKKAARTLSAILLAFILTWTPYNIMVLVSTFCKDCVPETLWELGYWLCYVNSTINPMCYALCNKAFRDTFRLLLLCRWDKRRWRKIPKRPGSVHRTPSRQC

[2] = target: T2, Muscarinic acetylcholine receptor M1 (Homo sapiens) (UniProt P11229); experiment: Dissociation rate constant for human muscarinic receptor at 200 nM with 500 uM brucine
T2 sequence (whole entry): T1 sequence (P11229 whole entry)

[3] = target: T1, Muscarinic acetylcholine receptor M1; experiment: Apparent dissociation constant for human muscarinic receptor M1 from FRET based binding assay
[4] = target: T2, Muscarinic acetylcholine receptor M1 (Homo sapiens); experiment: Dissociation rate constant for human muscarinic receptor at 200 nM with 100 uM brucine
[5] = target: T2, Muscarinic acetylcholine receptor M1 (Homo sapiens)
[6] = target: T2, Muscarinic acetylcholine receptor M1 (Homo sapiens); settings: 100 nM
[7] = target: T2, Muscarinic acetylcholine receptor M1 (Homo sapiens); settings: 100 nM; remark: listed apart in the source
[8] = target: T2, Muscarinic acetylcholine receptor M1 (Homo sapiens); experiment: Dissociation rate constant for human muscarinic receptor at 500 nM with 500 uM brucine
[9] = target: T2, Muscarinic acetylcholine receptor M1 (Homo sapiens); experiment: Dissociation rate constant for human muscarinic receptor at 500 nM with 100 uM brucine
[10] = target: T2, Muscarinic acetylcholine receptor M1 (Homo sapiens); settings: 300 nM
[11] = target: T2, Muscarinic acetylcholine receptor M1 (Homo sapiens); settings: 300 nM; remark: listed apart in the source

| pKi [1] | Dissociation rate constant [2] | pKd [3] | Dissociation rate constant [4] | E [5] | Dissociation rate constant [6] | Dissociation rate constant [7] | Dissociation rate constant [8] | Dissociation rate constant [9] | Dissociation rate constant [10] | Dissociation rate constant [11] | Structure (SMILES) |
| --- | --- | --- | --- | --- | --- | --- | --- | --- | --- | --- | --- |
| < 6.00 | – | – | – | – | – | – | – | – | – | – | O=C(CCC1=[N+]2C(=Cc3ccc(-c4cccs4)n3[B-]2(F)F)C=C1)NCCN1CCN(CC(=O)N2c3ccccc3C(=O)Nc3cccnc32)CC1 |
| 7.26 | 0.00146 1/S | 7.90 | 0.00144 1/S | 0.51 | – | – | – | – | – | – | O=C(CCCCCNC(=O)CCC1=[N+]2C(=Cc3ccc(-c4cccs4)n3[B-]2(F)F)C=C1)NCCCCCC(=O)NCCCCN1CCN(CC(=O)N2c3ccccc3C(=O)Nc3cccnc32)CC1 |
| 8.05 | – | 8.39 | – | 0.53 | 0.00023 1/S | 0.00025 1/S | – | – | – | – | O=C(CCC1=[N+]2C(=Cc3ccc(-c4cccs4)n3[B-]2(F)F)C=C1)NCCOCCOCCOCCOCCOCCOCCN1CCN(CC(=O)N2c3ccccc3C(=O)Nc3cccnc32)CC1 |
| < 6.00 | – | – | – | – | – | – | – | – | – | – | CNC(=O)CCC1=[N+]2C(=Cc3ccc(-c4cccs4)n3[B-]2(F)F)C=C1 |
| 8.06 | – | 7.89 | – | 0.63 | 0.0002 1/S | 7.2e-05 1/S | – | – | – | – | O=C(CCC1=[N+]2C(=Cc3ccc(-c4cccs4)n3[B-]2(F)F)C=C1)NCCCCCCN1CCN(CC(=O)N2c3ccccc3C(=O)Nc3cccnc32)CC1 |
| 7.34 | 0.00013 1/S | 7.66 | 0.00025 1/S | 0.6 | – | – | – | – | – | – | O=C(CCC1=[N+]2C(=Cc3ccc(-c4cccs4)n3[B-]2(F)F)C=C1)NCCOCCOCCN1CCN(CC(=O)N2c3ccccc3C(=O)Nc3cccnc32)CC1 |
| 7.27 | – | 7.73 | – | 0.68 | – | – | 0.00051 1/S | 0.00062 1/S | – | – | CCN(CC)c1ccc2c(-c3ccc(S(=O)(=O)NCCCCCC(=O)NCCOCCOCCN4CCN(CC(=O)N5c6ccccc6C(=O)Nc6cccnc65)CC4)cc3S(=O)(=O)[O-])c3ccc(=[N+](CC)CC)cc-3oc2c1 |
| 6.87 | – | 7.45 | – | 0.6 | – | – | – | – | 0.000353 1/S | 0.00039 1/S | CCN1/C(=C/C=C/C2N(CCCCCC(=O)NCCOCCOCCN3CCN(CC(=O)N4c5ccccc5C(=O)Nc5cccnc54)CC3)c3ccc(S(=O)(=O)O)cc3C2(C)C)C(C)(C)c2cc(S(=O)(=O)O)ccc21 (configuration not stated) |
